The values below come from publication PMC5654968 (NPJ Systems Biology and Applications, 2017).

Like-named read-outs stand apart in the source and are kept apart here.

Data set [1] in a line: Plasma PK of major maoto compounds by LC-MS/MS after oral administration of maoto. The data set is classed as in vivo, rat. As for the experimental part:
1 (7:00-19:00). Rats were maintained and used for the experiments in accordance
2 with the Guidelines for the Care and Use of Laboratory Animals of Tsumura &
3 CO. All experimental procedures were carried out upon approval from the
4 Laboratory Animal Committee of Tsumura & CO.
8 administered to 16-h fasted rats (n=3). […]
14 and 4 g/10mL/kg) were determined by LC-MS/MS. Based on a literature search,
16 amygdalin, prunasin, scopoletin, l-ephedrine, d-pseudoephedrine,
1 Plasma PK data were analyzed by noncompartmental modeling using
2 Phoenix WinNonlin (version 6.3, Certara L.P., St. Louis, MO, USA) to determine
3 various PK constants including Cmax, tmax, t1/2, and AUC0–last. The t1/2 was divided
4 by loge2/ke, where ke is the rate constant of terminal elimination (at least three
5 data points on the descending linear limb). […]

The format of data set [2] is in vivo, rat.
[3] abbreviates: Sprague-Dawley, rat, plasma, po, 1 g/kg.
Where [4] appears, read: Sprague-Dawley, rat, plasma, po, 1 g/kg, read-out: Cmax.
[5] abbreviates: Sprague-Dawley, rat, plasma, po, 1 g/kg, read-out: Tmax.
Setting [6] is: Sprague-Dawley, rat, plasma, po, 2 g/kg.
The mark [7] stands for this setting: Sprague-Dawley, rat, plasma, po, 2 g/kg, read-out: Cmax.
Setting [8] is: Sprague-Dawley, rat, plasma, po, 2 g/kg, read-out: Tmax.
The mark [9] stands for this setting: Sprague-Dawley, rat, plasma, po, 4 g/kg.
The mark [10] stands for this setting: Sprague-Dawley, rat, plasma, po, 4 g/kg, read-out: Cmax.
Where [11] appears, read: Sprague-Dawley, rat, plasma, po, 4 g/kg, read-out: Tmax.
Where [12] appears, read: PM/P (polyI:C+maoto vs polyI:C), 2h.
[13] abbreviates: PM/P (polyI:C+maoto vs polyI:C), 4h.

Consider `CC(C(O)c1ccccc1)N(C)C` (racemic) [dl-Methylephedrine], for which the figures for the AUC(0-t) in data set [1] (setting [3]), in data set [1] (setting [6]) and in data set [1] (setting [9]) were 18.7 ng·h/mL, 46 ng·h/mL and 94.9 ng·h/mL, respectively. The half-life in data set [1] (setting [3]) was 358 min; in data set [1] (setting [6]) it was 119 min; in data set [1] (setting [9]), 690 min. The values for the Cmax in data set [1] (setting [4]), in data set [1] (setting [7]) and in data set [1] (setting [10]) were 16.6 ng/mL, 22.5 ng/mL and 37 ng/mL, respectively. Further, the Tmax in data set [1] (setting [5]), in data set [1] (setting [8]) and in data set [1] (setting [11]) was 15 min each time.
As to `O=c1ccc2ccc(O)cc2o1` [7-hydroxycoumarin], the “detection in rat plasma by targeted LC-MS/MS” value in data set [1] (oral maoto 2 g/kg) is reported as “not detected”. For the same molecule, the AUClast entry in data set [1] (rat plasma, oral maoto 1 g/kg) is “BQL”; in data set [1] (rat plasma, oral maoto 2 g/kg), “BQL”; in data set [1] (rat plasma, oral maoto 4 g/kg) it was “BQL”. Further, the Cmax entry in data set [1] (rat plasma, oral maoto 1 g/kg) is listed as “BQL”; in data set [1] (rat plasma, oral maoto 2 g/kg), “BQL”; in data set [1] (rat plasma, oral maoto 4 g/kg), “BQL”.
Turning to `Oc1cc(O)c2c(c1)O[C@H](c1ccc(O)c(O)c1)[C@@H](O)C2` [(+)-Catechin], in data set [1] (rat plasma, oral maoto 1 g/kg), the AUClast entry is on record as “BQL” and the maximum concentration (Cmax) entry was “BQL”. For the same molecule, in data set [1] (rat plasma, oral maoto 2 g/kg), the AUClast was found to be 0.111 ng·h/mL, the peak concentration (Cmax) was determined as 0.443 ng/mL and the Tmax is 60 min. In data set [1] (rat plasma, oral maoto 4 g/kg), the AUClast worked out at 1.71 ng·h/mL, the peak concentration (Cmax) is given as 3.75 ng/mL and the time to peak (Tmax) came out at 15 min.
Take `N#C[C@H](O[C@@H]1O[C@H](CO[C@@H]2O[C@H](CO)[C@@H](O)[C@H](O)[C@H]2O)[C@@H](O)[C@H](O)[C@H]1O)c1ccccc1` [Amygdalin]: the area under the curve AUC(0-t) in data set [1] (setting [3]) came out at 346 ng·h/mL; in data set [1] (setting [6]), 1520 ng·h/mL; in data set [1] (setting [9]), 7610 ng·h/mL. In addition, the half-life in data set [1] (setting [3]) is 78.6 min; in data set [1] (setting [6]), 56.2 min; in data set [1] (setting [9]), 148 min. Further, the Cmax in data set [1] (setting [4]) stood at 101 ng/mL; in data set [1] (setting [7]), 653 ng/mL; in data set [1] (setting [10]), 5250 ng/mL. Further, the Tmax in data set [1] (setting [5]) is 15 min; in data set [1] (setting [8]) it was 60 min; in data set [1] (setting [11]) it was 15 min.
Consider `O=C(O)/C=C/c1ccccc1` [Cinnamic acid], for which the exposure AUC(0-t) in data set [1] (setting [3]) amounted to 624 ng·h/mL; in data set [1] (setting [6]), 2060 ng·h/mL; in data set [1] (setting [9]), 5750 ng·h/mL. Besides, the Cmax was determined as 1060 ng/mL in data set [1] (setting [4]), 1280 ng/mL in data set [1] (setting [7]) and 2120 ng/mL in data set [1] (setting [10]). Moreover, the results for the half-life in data set [1] (setting [6]) and in data set [1] (setting [9]) were 78 min and 98.4 min, respectively.
Consider `Oc1cc(O)c2c(c1)O[C@H](c1ccc(O)c(O)c1)[C@H](O)C2` [Epicatechin], for which the AUC(0-t) in data set [1] (setting [3]) worked out at 4.24 ng·h/mL; in data set [1] (setting [6]), 2.78 ng·h/mL; in data set [1] (setting [9]), 6.92 ng·h/mL. In addition, the half-life in data set [1] (setting [3]) is 303 min; in data set [1] (setting [6]), 122 min; in data set [1] (setting [9]) it was 209 min. Further, the Cmax in data set [1] (setting [4]) was found to be 1.82 ng/mL; in data set [1] (setting [7]), 1.95 ng/mL; in data set [1] (setting [10]), 8.34 ng/mL. Also, the Tmax in data set [1] (setting [5]) turned out to be 30 min; in data set [1] (setting [8]), 15 min; in data set [1] (setting [11]), 15 min.
For the molecule `Oc1cc(O)c2c(c1)O[C@H](c1cc(O)c(O)c(O)c1)[C@H](O)C2` [Epigallocatechin], the AUC(0-t) is 0.457 ng·h/mL in data set [1] (setting [3]), 0.26 ng·h/mL in data set [1] (setting [6]) and 0.286 ng·h/mL in data set [1] (setting [9]). For the same molecule, the half-life in data set [1] (setting [3]) is 314 min; in data set [1] (setting [6]), 190 min; in data set [1] (setting [9]), 50 min. Also, the Cmax in data set [1] (setting [4]) came out at 0.197 ng/mL; in data set [1] (setting [7]), 0.103 ng/mL; in data set [1] (setting [10]) it was 0.456 ng/mL. The Tmax in data set [1] (setting [5]) came out at 30 min; in data set [1] (setting [8]), 30 min; in data set [1] (setting [11]), 15 min.
Take `COc1c(CC=C(C)C)c(O)cc2oc(=O)c(-c3ccc(O)cc3O)cc12` [Glycycoumarin]: the AUC(0-t) in data set [1] (setting [3]) came out at 0.0105 ng·h/mL; in data set [1] (setting [6]), 0.0227 ng·h/mL; in data set [1] (setting [9]) it was 0.058 ng·h/mL. In addition, the Cmax came out at 0.0836 ng/mL in data set [1] (setting [4]), 0.0906 ng/mL in data set [1] (setting [7]) and 0.0753 ng/mL in data set [1] (setting [10]). Besides, the Tmax in data set [1] (setting [5]) amounted to 15 min; in data set [1] (setting [8]), 60 min; in data set [1] (setting [11]) it was 15 min.
For the molecule `CC1(C)[C@@H](O)CC[C@]2(C)[C@H]3C(=O)C=C4[C@@H]5C[C@@](C)(C(=O)O)CC[C@]5(C)CC[C@@]4(C)[C@]3(C)CC[C@@H]12` [Glycyrrhetinic acid], the AUC(0-t) in data set [1] (setting [3]) was determined as 2240 ng·h/mL; in data set [1] (setting [6]) it was 4510 ng·h/mL; in data set [1] (setting [9]), 3950 ng·h/mL. In addition, the Cmax was 234 ng/mL in data set [1] (setting [4]), 373 ng/mL in data set [1] (setting [7]) and 301 ng/mL in data set [1] (setting [10]). Further, the Tmax in data set [1] (setting [5]) worked out at 480 min; in data set [1] (setting [11]), 480 min; in data set [1] (rat plasma, oral maoto 2 g/kg), 600 min.
Take `O=C(/C=C/c1ccc(O)cc1)c1ccc(O)cc1O` [Isoliquiritigenin]: the AUC(0-t) in data set [1] (setting [3]) was found to be 19.8 ng·h/mL; in data set [1] (setting [6]), 31 ng·h/mL; in data set [1] (setting [9]), 58.9 ng·h/mL. Moreover, the figures for the Cmax in data set [1] (setting [4]), in data set [1] (setting [7]) and in data set [1] (setting [10]) were 10.4 ng/mL, 10.1 ng/mL and 7.59 ng/mL, respectively. Also, the Tmax in data set [1] (setting [5]), in data set [1] (setting [8]) and in data set [1] (setting [11]) was 15 min throughout. For the same molecule, the half-life in data set [1] (setting [6]) was 666 min; in data set [1] (setting [9]), 217 min. The t1/2 in data set [1] (rat plasma, oral maoto 1 g/kg) is 3.42 h.
Turning to `CCCCC/C=C\C\C=C/C=C/C=C/[C@@H](SCC(NC(C)=O)C(=O)O)[C@@H](O)CCCC(=O)O` (stereo partly shown) [N-acetyl-LTE4], the “log2FC of plasma level” value was -1.85 in data set [2] (M/C (maoto vs control), 2h); -1.41 in data set [2] (M/C (maoto vs control), 4h); 2.21 in data set [2] (P/C (polyI:C vs control), 2h); 1.28 in data set [2] (P/C (polyI:C vs control), 4h); -2.45 in data set [2] (setting [12]); -0.96 in data set [2] (setting [13]).
For the molecule `CCCCC[C@H](O)/C=C/[C@H]1C(=O)C[C@H](O)[C@@H]1C/C=C\CCCC(=O)O` [PGD2], the “log2FC of plasma level” value in data set [2] (M/C (maoto vs control), 2h) is recorded as -0.26; in data set [2] (M/C (maoto vs control), 4h) it was -0.58; in data set [2] (P/C (polyI:C vs control), 2h), 0.28; in data set [2] (P/C (polyI:C vs control), 4h), 0.92; in data set [2] (setting [12]), -0.11; in data set [2] (setting [13]) it was -1.25.
For `CC/C=C\C[C@H](O)/C=C/[C@H]1C(=O)C[C@H](O)[C@@H]1C/C=C\CCCC(=O)O` [PGD3], the “log2FC of plasma level” value in data set [2] is -0.55; in data set [2] (first value of an incomplete line, time (2h or 4h) not assignable), -0.03.
With `CCCCC[C@H](O)/C=C/[C@H]1[C@H](O)CC(=O)[C@@H]1C/C=C\CCCC(=O)O` [PGE2], the “log2FC of plasma level” value in data set [2] (M/C (maoto vs control), 2h) is -0.31; in data set [2] (M/C (maoto vs control), 4h), 0.22; in data set [2] (P/C (polyI:C vs control), 2h), 0.59; in data set [2] (P/C (polyI:C vs control), 4h) it was 0.59; in data set [2] (setting [12]) it was -0.15; in data set [2] (setting [13]), 0.22.
Regarding `CCCCC[C@H](O)/C=C/[C@@H]1[C@@H](C/C=C\CCCC(=O)O)[C@@H](O)C[C@H]1O` [PGF2α], the “log2FC of plasma level” value in data set [2] (M/C (maoto vs control), 2h) is 0.30; in data set [2] (M/C (maoto vs control), 4h) it was -0.20; in data set [2] (P/C (polyI:C vs control), 2h), 0.24; in data set [2] (P/C (polyI:C vs control), 4h), -0.04; in data set [2] (setting [12]), 0.14; in data set [2] (setting [13]), -0.13.
On to `CCCCC[C@H](O)/C=C/[C@H]1OC(O)C[C@H](O)[C@@H]1C/C=C\CCCC(=O)O` (stereo partly shown) [TXB2], for which the “log2FC of plasma level” value in data set [2] (M/C (maoto vs control), 2h) is on record as 1.36; in data set [2] (M/C (maoto vs control), 4h), -0.87; in data set [2] (P/C (polyI:C vs control), 2h) it was 0.70; in data set [2] (P/C (polyI:C vs control), 4h) it was 0.28; in data set [2] (setting [12]), 0.92; in data set [2] (setting [13]) it was -0.46.
